Values joined by “and” are separate entries in the source; they are usually repeats but may differ in a detail not shown here. Equal entries are not always repeated.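 Step 1: Grow cells in 96-well plates. Step 2: Expose to compound for 48 hours at 5 concentrations. Step 3: Interpolate endpoints linearly; if unreached, use highest concentration. GI50: concentration for 50% inhibition of growth. TGI denotes the concentration required for complete inhibition of growth.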
Assays:
Test in all cases: growth of human tumour cells (NCI), 48 h
[1] = test system: A498 renal
[2] = test system: T-47D breast
[3] = test system: MOLT-4 leukemia
[4] = test system: RPMI-8226 leukemia
[5] = test system: KM12 colon
[6] = test system: HCC-2998 colon
[7] = test system: NCI-H460 lung
[8] = test system: RXF 393 renal

Compound	GI50 [1]	TGI [1]	GI50 [2]	TGI [2]	GI50 [3]	TGI [3]	GI50 [4]	TGI [4]	GI50 [5]	TGI [5]	GI50 [6]	TGI [6]	GI50 [7]	TGI [7]	GI50 [8]	TGI [8]
NOCC(=O)O	> 100 µM	> 100 µM	> 100 µM	> 100 µM	> 100 µM	> 100 µM	58 µM	> 100 µM	> 100 µM	> 100 µM	> 100 µM	> 100 µM	> 100 µM	> 100 µM	> 100 µM	> 100 µM
CC(=O)CC(=O)Nc1ccc2ccccc2c1		> 100 µM		> 100 µM		> 100 µM		> 100 µM		> 100 µM				> 100 µM		> 100 µM
COc1cc(OC)cc(C2CC(=O)Nc3c2c(C)nn3-c2nc3ccccc3[nH]2)c1 (stereo unspecified)	2.11 µM	4.69 µM	3.5 µM	> 100 µM	0.0728 µM	0.434 µM	2.64 µM	6.29 µM	2.79 µM	7.68 µM	3.7 µM	56.5 µM	2.58 µM	6.1 µM	3.21 µM	24.6 µM
CC(=O)[O-].CC(=O)[O-].[Pt+2].c1cscn1.c1cscn1	> 100 µM	> 100 µM	62 µM	> 100 µM	36.1 µM	> 100 µM	57.7 µM	> 100 µM	> 100 µM	> 100 µM	> 100 µM	> 100 µM	> 100 µM	> 100 µM	> 100 µM	> 100 µM
CCC1(CC)C(=O)OC(=O)C1(CC)CC		> 100 µM		> 100 µM		> 100 µM		> 100 µM		> 100 µM		> 100 µM		> 100 µM		
C=C1C(=O)O[C@H]2[C@H]1CC/C(CNC(=O)c1cc3cc(OC)ccc3[nH]1)=C\CC[C@@]1(C)O[C@@H]21	1.93 µM	8.64 µM	1.47 µM	4.35 µM	2.08 µM	6.85 µM	1.58 µM	4.39 µM	4.98 µM	17.7 µM	1.66 µM	3.26 µM	5.51 µM	20 µM	1.17 µM	2.61 µM
CN1CCN(CCCN)CC1		> 100 µM		> 100 µM		> 100 µM		> 100 µM		> 100 µM						> 100 µM
Nc1ccc(N(S(=O)(=O)c2ccccc2)S(=O)(=O)c2ccccc2)c(Cl)c1		98.2 µM		> 100 µM		60.5 µM		> 100 µM		> 100 µM		64.2 µM		> 100 µM		> 100 µM
ClCc1cccc(Cn2cnc3c(NC45CC6CC(CC(C6)C4)C5)ncnc32)c1	15.4 µM	31.7 µM	15.1 µM	36.6 µM	9.92 µM	36 µM	10.8 µM	> 53.2 µM	14.6 µM	30.6 µM	16.7 µM	32.2 µM	16 µM	43 µM	11.4 µM	36.7 µM
O=c1c2c(nc3n1CCS3)[nH]c1ccccc12	89.5 µM	> 100 µM	> 100 µM	> 100 µM	> 100 µM	> 100 µM	> 100 µM	> 100 µM	> 100 µM	> 100 µM	> 100 µM	> 100 µM	> 100 µM	> 100 µM	58.6 µM	> 100 µM
CC(C)=CCCC(C)c1ccc(C)c2c1OCN(CC1CCNCC1)C2 (stereo unspecified)	12.3 µM	26 µM	15.2 µM	33.2 µM	14.6 µM	43.3 µM	7.25 µM	32.6 µM	12.3 µM	26 µM	3.74 µM	12.3 µM	5.36 µM	16.6 µM	9.2 µM	21.7 µM
CCOC(=O)c1cc(C#N)c(=O)n(/N=C(\C)c2ccncc2)c1O			> 100 µM	> 100 µM	> 100 µM	> 100 µM	> 100 µM	> 100 µM	> 100 µM	> 100 µM	> 100 µM	> 100 µM	> 100 µM	> 100 µM		
CC(C)c1ccc(C(=O)Nc2nc3ccc(O)cc3s2)cc1	2.2 µM	9.91 µM	0.715 µM	> 100 µM	0.246 µM	> 100 µM	2.74 µM	> 100 µM	0.262 µM	> 100 µM	0.371 µM	1.81 µM	0.47 µM	10.9 µM	2.6 µM	13.9 µM
Cn1c([N+](=O)[O-])cnc1/C=C1\Oc2ccccc2C1=O			12.7 µM	68.8 µM	0.159 µM	0.758 µM	1.27 µM	5.31 µM	0.412 µM	2.46 µM	1.9 µM	5.06 µM	0.314 µM	1.72 µM		
O=[N+]([O-])c1cc(Cl)c(Cl)c([N+](=O)[O-])c1Cl	6.4 µM	20.9 µM			0.436 µM	5.42 µM	0.422 µM	2.61 µM	1.44 µM	2.97 µM			3.3 µM	> 100 µM	1.82 µM	3.25 µM
COc1ccc(/C=N\NC(=O)CN2CCN(c3cc4c(cc3F)c(=O)c(C(=O)N/N=C/c3ccc(OC)c(OC)c3)cn4C3CC3)CC2)cc1OC	1.4 µM	23.4 µM	2.55 µM	8.78 µM	3.56 µM	> 100 µM	2.77 µM	8.82 µM	3.42 µM	10.7 µM	3.52 µM	12.7 µM	2.6 µM	6.87 µM	3.79 µM	15.2 µM
COc1cc(C(=O)/C(C)=C/c2c[nH]c3ccccc23)cc(OC)c1OC	0.0025 µM	0.00916 µM	2.46 µM	> 100 µM	0.00546 µM	37 µM	0.00482 µM	4.55 µM	0.00359 µM		0.0043 µM	> 100 µM	0.00369 µM	> 100 µM	1.81 µM	> 100 µM
COc1cc2c(cc1OCCCOc1cc3c(cc1OC)C(=O)N1C[C@H](F)C[C@H]1C=N3)N=C[C@@H]1C[C@@H](F)CN1C2=O			15.9 µM	58 µM	1.33 µM	4.3 µM	2.01 µM	5.79 µM	12.7 µM	26.7 µM			6.15 µM	20.1 µM	2.4 µM	7.6 µM

Compound	GI50 [1]	TGI [1]	GI50 [2]	TGI [2]	GI50 [3]	TGI [3]	GI50 [4]	TGI [4]	GI50 [5]	TGI [5]	GI50 [6]	TGI [6]	GI50 [7]	TGI [7]	GI50 [8]	TGI [8]
Cc1cc(C)c([O-])c(CN(C)CCN(C)Cc2cc(C)cc(C)c2[O-])c1.O=C([O-])c1cccc(C(=O)[O-])n1.[Ti+4]	3.72 µM	> 100 µM	1.28 µM	> 100 µM	3.12 µM	> 100 µM	1.37 µM	5.17 µM	3.36 µM	> 100 µM	2.98 µM	> 100 µM	2.01 µM	> 100 µM	1.42 µM	3.96 µM
CCN1CCN(C(=O)[C@]23CC[C@@H](C)[C@H](C)[C@@H]2C2=CC[C@@H]4[C@@]5(C)C/C(=C/c6ccncc6)C(=O)C(C)(C)[C@@H]5CC[C@@]4(C)[C@]2(C)CC3)CC1	1.49 µM	2.9 µM	1.56 µM	3.49 µM	1.78 µM	4.57 µM	1.88 µM	5.91 µM	1.87 µM	3.66 µM	1.5 µM	3.03 µM	1.7 µM	3.25 µM	1.39 µM	2.79 µM
O=S(=O)(NC1=NCCN1C(=S)SN1CCn2c1nsc2=S)c1ccc(Br)cc1	33.7 µM	> 100 µM	43.5 µM	> 100 µM	27.1 µM	> 100 µM	1.86 µM	37.2 µM	25.5 µM	> 100 µM	63.9 µM	> 100 µM	38.9 µM	> 100 µM	17.8 µM	51.4 µM
COc1ccc(N2C(=O)CC(Cl)C2=O)cc1 (stereo unspecified)		> 100 µM		38.4 µM				37.2 µM				50.6 µM		> 100 µM		40.7 µM
COc1cc(/C=C(\C#N)C(=O)c2ccccc2)ccc1OCc1ccccc1						> 100 µM		> 100 µM		> 100 µM		> 100 µM				
O=c1c2cc(Cl)ccc2oc2ccc(OCCCCCN3CCCCC3)cc12	6.28 µM	12.8 µM	7.21 µM	17 µM	3.16 µM	10.7 µM	3.6 µM	12.4 µM	2.68 µM	9 µM	8.55 µM	16.9 µM	1.73 µM	5.55 µM	1.86 µM	7.2 µM
O=C1c2ccccc2C(=O)N1CCCSc1ccccc1		> 100 µM		> 100 µM		> 100 µM		> 100 µM		> 100 µM		> 100 µM		> 100 µM		> 100 µM
COc1cc(OC)c(/C=C/S(=O)(=O)Cc2cnc(OC)c(N)c2)c(OC)c1	< 0.01 µM	> 100 µM			< 0.0218 µM	> 100 µM	< 0.0206 µM	> 100 µM	< 0.0157 µM	> 100 µM	< 0.0333 µM	> 100 µM	< 0.02 µM	> 100 µM	< 0.01 µM	> 100 µM
O=c1c(Oc2ccc(F)cc2F)cc2cnc(NC3CCOCC3)nc2n1C1CCS(=O)(=O)CC1	> 25 µM	> 25 µM	> 25 µM	> 25 µM	> 25 µM	> 25 µM	> 25 µM	> 25 µM	> 25 µM	> 25 µM	> 25 µM	> 25 µM	> 25 µM	> 25 µM	> 25 µM	> 25 µM
O=c1ccn(C2OC(CO)C(O)C2F)c(=O)[nH]1 (stereo unspecified)	> 1000 µM	> 1000 µM	> 1000 µM	> 1000 µM	> 1000 µM	> 1000 µM	> 1000 µM	> 1000 µM	> 1000 µM	> 1000 µM		> 100 µM	> 1000 µM	> 1000 µM	> 1000 µM	> 1000 µM
CO[C@@H]1/C=C\C=C(/C)C(=O)NC2=CC(=O)C(NCCN(C)C)=C(C[C@@H](C)C[C@@H](OC)[C@@H](O)[C@H](C)/C=C(\C)[C@H]1OC(N)=O)C2=O		28.3 µM	0.03 µM and 0.0574 µM	3.31 µM and 4.48 µM	0.0444 µM	1.02 µM and 8.39 µM		19.6 µM and 6.32 µM	0.0147 µM	1.02 µM and 0.448 µM	0.0197 µM		< 0.0117 µM	3.61 µM and 3.76 µM		11.8 µM and 10.8 µM
COc1ccc(CN(C)c2ccc(CO)c(Cl)c2)cc1	0.0416 µM	0.178 µM	0.513 µM	3.82 µM	25.8 µM	> 86.7 µM	9.71 µM	> 65.4 µM	24.6 µM	> 92.8 µM	13.7 µM	71.2 µM	1.04 µM	15 µM	10.9 µM	> 79.8 µM
COc1cc(/C=C/C(=O)CC(=O)/C=C/c2cc(OC)c(OC)c(OC)c2)cc(OC)c1OC	10.4 µM	42.9 µM	3.98 µM	84.5 µM	2.98 µM	> 100 µM			4.58 µM	63 µM	15.9 µM	> 100 µM	3.94 µM	18.4 µM	3.09 µM	8.84 µM
C=CCC(N[C@H](CO)c1ccccc1)c1ccc2ccccc2n1 (stereo partly specified)	29.3 µM	> 100 µM	> 100 µM	> 100 µM			> 100 µM	> 100 µM	> 100 µM	> 100 µM	> 100 µM	> 100 µM			> 100 µM	> 100 µM
O=C(/C=C/c1ccc(F)cc1)c1ccc(Cl)cc1Cl	> 100 µM	> 100 µM			26.2 µM	63.9 µM	17.5 µM	39.5 µM	38.1 µM	> 100 µM	52.7 µM	> 100 µM	65.6 µM	> 100 µM	30.5 µM	93.4 µM
CCOC(=O)C(Cc1c[nH]c2ccc(N)cc12)(NC(C)=O)C(=O)OCC			728 µM	> 1000 µM					> 1000 µM	> 1000 µM	> 1000 µM	> 1000 µM	> 1000 µM	> 1000 µM	> 1000 µM	> 1000 µM
Cn1ccnc1CC(C)(O)c1ccccc1 (stereo unspecified)		> 100 µM						> 100 µM		> 100 µM		> 100 µM		> 100 µM		> 100 µM
